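Where inhibition never reached the appropriate level, the endpoint shown equals the highest concentration tested. Otherwise, values were interpolated linearly from a five-concentration, 48-hour dose response in 96-well plates. Abbreviation: GI50, concentration required for 50% inhibition of growth. At the TGI there is no net growth.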
What was measured:
Assay in all cases: NCI tumour cell line growth inhibition, 48 h
DLD-1 colon = tested on: DLD-1 colon
XF 498 CNS = tested on: XF 498 CNS
SN12K1 renal = tested on: SN12K1 renal
P388/ADR leukemia = tested on: P388/ADR leukemia
HOP-18 NSCLC = tested on: HOP-18 NSCLC
P388 leukemia = tested on: P388 leukemia
M19-MEL melanoma = tested on: M19-MEL melanoma
LXFL 529 NSCLC = tested on: LXFL 529 NSCLC
DMS 114 small cell lung = tested on: DMS 114 small cell lung

## C=C(C#N)C(=O)OCC(CC)CC.C=C(C#N)C(=O)OCC(CC)CC.CS(C)=O.CS(C)=O.Nc1c(N=Nc2ccc(-c3ccc(N=Nc4cc(S(=O)(=O)[O-])c5ccccc5c4N)cc3)cc2)cc(S(=O)(=O)[O-])c2ccccc12.[Pt+2]
DLD-1 colon
  GI50: 28.2 µM
  TGI: > 77.8 µM
XF 498 CNS
  GI50: 21.1 µM
  TGI: 40.9 µM
SN12K1 renal
  GI50: 19.7 µM
  TGI: 40.1 µM
P388/ADR leukemia
  GI50: 27.2 µM
  TGI: > 100 µM
HOP-18 NSCLC
  GI50: 22 µM
  TGI: 53.9 µM
P388 leukemia
  GI50: 29.6 µM
  TGI: > 100 µM

## CCN(CC)CCNc1ccc2ncn3c4ccc(O)cc4c(=O)c1c23
M19-MEL melanoma
  TGI: 17.1 µM
LXFL 529 NSCLC
  TGI: 17.6 µM
DLD-1 colon
  TGI: 15.1 µM
XF 498 CNS
  TGI: 7.42 µM
HOP-18 NSCLC
  TGI: 33.3 µM

## COc1ccc2nc3cc(Cl)ccc3c(NC(C)CCCN(CCCl)CCCl)c2c1 (configuration not stated)
DMS 114 small cell lung
  TGI: 11.4 µM
M19-MEL melanoma
  TGI: 8.78 µM
LXFL 529 NSCLC
  TGI: 2.5 µM
DLD-1 colon
  TGI: 4.1 µM
XF 498 CNS
  TGI: 4.43 µM

Reference: PubChem BioAssay (NCI)
